Assays:
[1] = system: patient with Hypoactive Sexual Desire Disorder; test: Treatment of Hypoactive Sexual Desire Disorder in a patient (Examples A, I); assay type: in vivo, human; details: 1 mg/dose 0.5 hr before sexual activity, examined after one month, patient report
Description: A 44 kg, patient is referred by their psychologist for evaluation for and medical treatment of hypoactive sexual desire disorder. The patient recently began to co-habitate with a person. They consulted a clinical psychologist because of distress over frequent arguments with their partner. These arguments concern their frustration that their partner is unwilling to marry them and the partner's accusations that they are sexually unresponsive and “boring in bed.” The patient reports that although they desire to continue the relationship, they have little or no interest in sexual activity with this partner. The partner initiates all sexual activity in the relationship and they comply so that the relationship will continue. They state that their partner desires sexual intercourse about once per day. Occasionally, the couple's frequency of sexual intercourse is as much as twice per day. […] They currently take no prescription drugs other than low dose birth control pills. […] The patient is diagnosed as having Hypoactive Sexual Desire Disorder of acquired onset due to situational factor (Diagnostic and Statistical Manual of Mental Disorders, Fourth Edition, 1994). (5R)-(methylamino)-5,6-dihydro-4H-imidazo[4,5,1-ij]quinolin-2(1H)-one (Z)-2-butenedioate (1:1) is prescribed at 1 mg/dose to be taken 0.5 hr before the patient intends to engage in sexual activity. The patient is instructed that they may use the drug on a daily basis, if they and their partner desire sexual activity at this frequency. They are also instructed that on occasions they may use the drug twice in a single day if this is the intended frequency of intercourse. The patient is examined after one month. They report that they use the drug once, and occasionally twice, per day. […] They also report that they and their partner argue less frequently and that their partner no longer accuses them of being disinterested in sexual relations. The patient is instructed to continue using the drug.

[2] = system: patient with Female Sexual Arousal Disorder; test: Treatment of Female Sexual Arousal Disorder in a patient (Examples B, J); assay type: in vivo, human; details: 3 mg/dose 0.5-1 hr before sexual activity; examined after one month; patient report
Description: A 64 kg, patient is complaining of vaginal dryness and mild discomfort during sexual intercourse. The patient recently began a relationship with a person. Their partner complained of their vaginal dryness and poor vaginal expansion during sexual intercourse. Their partner has made several comments about this during the previous two months and the patient is concerned that their partner is dissatisfied with their lack of sexual responsiveness and may end the relationship. The patient reports that they desire to continue the relationship. The patient has had several previous sexual relationships. They report that vaginal dryness and some discomfort with vaginal intercourse has occurred during their past sexual relationships. […] They find their current partner attractive and sexual desirable. […] During these episodes they usually have an orgasm. Lubrication is not a problem when they masturbate. […] They currently take no prescription drugs other than low dose birth control pills. […] The patient is diagnosed as having Female Sexual Arousal Disorder that is situational due to psychological factors (Diagnostic and Statistical Manual of Mental Disorders, Fourth Edition, 1994). (5R)-(methylamino)-5,6-dihydro-4H-imidazo[4,5,1-ij]quinolin-2(1H)-one (Z)-2-butenedioate (1:1) is prescribed at 3 mg/dose to be taken 0.5-1 hr before the patient intends to engage in sexual activity. The patient is instructed that they may use the drug on a daily basis, if this is the intended frequency of sexual activity. The patient is examined after one month. They report that they use the drug prior to intercourse. […] The patient is instructed to continue using the drug.

[3] = system: patient with erectile dysfunction and hypoactive sexual desire disorder; test: Treatment of patient with erectile dysfunction and Hypoactive Sexual Desire Disorder, combination with sildenafil (Examples H, P); assay type: in vivo, human; details: 3 mg/dose in combination with sildenafil (VIAGRA Tablets) 50 mg/dose, orally about 0.5 hr before sexual activity, 2-3 times per week; after one month
Description: A 70 kg patient is apparently in good health. They present complaining of a loss of sexual desire and frequent erectile dysfunction since taking an executive position in their company, six weeks previously. They report that they work long hours and feels a high degree of pressure associated with their job. They are frustrated and angry that when they take time off from work they are unable to have an intimate relationship with their spouse. They report that although they are periodically interested in initiating sexual relations, on most occasions they are unable to maintain a high level of interest sufficiently long to initiate or to adequately respond to their spouse's initiating sexual activity. […] They develop a semi-rigid erection at the beginning of sexual activity but detumescence occurs when they attempt penetration. They report that they have few erotic fantasies. They have not masturbated for the past several months. They attribute this to a lack of motivation and interest. […] (5R)-(methylamino)-5,6-dihydro-4H-imidazo[4,5,1-ij]quinolin-2(1H)-one (Z)-2-butenedioate (1:1), 3 mg/dose, and sildenafil (VIAGRA Tablets), 50 mg/dose, are both prescribed. Each is to be taken orally about 0.5 hr before the patient intends to engage in sexual activity. The patient is instructed that they may use the drug combination on a daily basis, if this is the intended frequency of sexual activity. The patient is examined after one month. They report that they take the drug combination 2-3 times per week. […] The patient is advised to continue taking the (5R)-(methylamino)-5,6-dihydro-4H-imidazo[4,5,1-ij]quinolin-2(1H)-one (Z)-2-butenedioate (1:1) for another six months as they adapt to the situational stress associated with their new job. After this time they are advised to stop taking the drug for a period of two weeks to determine whether their sexual motivation and desire have returned to the level they enjoyed prior to the change in jobs.

Structure (SMILES)	treatment effect (sexual relationship) [1]	treatment effect (sexual relationship) [2]	treatment effect (sexual relationship) [3]	melting point [°C]	frequency of sexual fantasies ([1]; once, occasionally twice, per day)	initiation of sexual activity [1]	pain during initiation of vaginal penetration [2]	vaginal dryness [2]	maintenance of erection [3]	sexual fantasies [3]	sexual motivation [3]
CN[C@@H]1Cc2cccc3[nH]c(=S)n(c23)C1 [(5R)-5-(Methylamino)-5,6-dihydro-4H-imidazo[4,5,1-ij]quinoline-2(1H)-thione]	same positive treatment effect	same positive treatment effect	same positive treatment effect	210 to 213	–	–	–	–	–	–	–
CN[C@@H]1Cc2cccc3[nH]c(=O)n(c23)C1.O=C(O)/C=C\C(=O)O [(5R)-(methylamino)-5,6-dihydro-4H-imidazo[4,5,1-ij]quinolin-2(1H)-one (Z)-2-butenedioate (1:1)]	enjoys an improved sexual relationship with their partner	enjoys an improved sexual relationship with their partner	enjoys an improved sexual relationship with their partner	–	3-4 occasions per week	occasionally initiates sexual activity with their partner	no longer has pain	no longer a problem	no difficulty maintaining an erection to completion of sexual intercourse	readily has sexual fantasies that are sustained during sexual intercourse	feels motivated to initiate sexual activity
